The values below come from US7303921B2, “Method to assay coenzyme Q10 in blood plasma or blood serum” (priority 2002, dated 2007).

Data set [1] can be described thus: Stability of total CoQ10 in plasma at different storage conditions and times. Format: physicochemical, human. Here is the method: In order to check the stability of total CoQ10 in plasma, aliquots of 3 different samples were kept for 3 days at 4° C., room temperature (22° C.) and at −20° C. respectively.
(§1) Description of the Analysis. 200 μl of a blood plasma sample were supplemented with 50 μl of a 1,4 benzoquinone solution (2 mg/ml) in a test tube and vortexed for 10 seconds. After 10 minutes, 1 ml of n-propanol was added. The test tube was vortexed for 10 seconds and centrifuged at 10,000 rpm for 2 minutes in order to spin down the protein precipitate. 200 μl of the supernatant were injected into the HPLC. […] Mobile phase was constituted by ethanol-methanol (65%-35%) and the flux was 1 ml/min. UV detection was performed at 275 nm.

A short description of data set [2]: Stability of the n-propanol extract (supernatant) of plasma CoQ10. In kind it is physicochemical. Here is the method:
as §1
For practical reasons the propanol extract can be kept in the refrigerator up to 3 days before injection into the HPLC. Several samples were checked by analysing them 1 hour, 1, 2 and 4 days after drawing the blood, keeping the samples at −20° C., 0-4° C., or +22° C. (room temperature) and the results, as far as total CoQ10 was concerned, were the same for the same sample whether kept at different temperatures or for different lengths of time (presumably only the reduced/oxidised CoQ10 ratio changed). There was no need to add any stabilizing agent to the sample.

Structures are written as SMILES. Where “and” joins values, the source holds several entries; their conditions need not be identical. Equal entries are not always repeated.

Turning to `COC1=C(OC)C(=O)C(C/C=C(\C)CC/C=C(\C)CC/C=C(\C)CC/C=C(\C)CC/C=C(\C)CC/C=C(\C)CC/C=C(\C)CC/C=C(\C)CC/C=C(\C)CCC=C(C)C)=C(C)C1=O` [CoQ10], in data set [1] (0-4° C., 72 h, plasma samples A, B, C), the “Mean total CoQ10” value was 1.82 µM and 1.11 µM. Further, in data set [1] (1 hour, 1, 2 and 4 days after drawing the blood, −20° C., 0-4° C. or +22° C., no stabilizing agent), the “total CoQ10 result after storage of samples” value is given as “the same”. Also, the “stability of total CoQ10 in plasma” value in data set [1] (even when kept at room temperature) is “practically stable for at least three days”. Also, the “stability of supernatant (propanol extract)” value in data set [2] (capped test tube, kept at 22° C.) is “stable for up to three days”. Moreover, in data set [2] (in the refrigerator), the “time the propanol extract can be kept before injection into the HPLC” value is recorded as “up to 3 days”.
